According to patent US20090088461A1, “Methods of Treating or Preventing Cardiac Disease Associated With a High Fat Diet” (Synvista Therapeutics, Inc., priority 2007, published 2009):

Tests used:
Assay type in all cases: in vivo
[1] = test system: PPARα, CD36, intra-myocardial triacylglycerol; test: Assessment of lipid metabolism in HF-fed mice; conditions: for Gene expression PPAR alpha: HF diet, real time RT-PCR
Source text: Adult (8-week-old) male […] mice (Precinct Animal Centre, Melbourne, Australia) and RAGE knockout (KO) mice^17 ([…] al., J Clin Invest. 113:1641-50, 2004) were housed in a temperature-controlled room on a 12-h light-dark cycle. Mice were placed on either a standard diet (AIN-93G; Specialty feeds, Perth AUS; n=10/group) or a high fat (HF) diet formulated to mimic a “Western fast food diet”, (SF05-031, Specialty Feeds; n=10). Both diets contained the same vitamin and calorie content. […] Animals receiving a HF diet were further randomized to receive alagebrium chloride at a dose of 1 mg/kg/day delivered by oral gavage. All groups were followed for 16 weeks. Changes in myocardial energy metabolism, due to altered substrate handling, characterize obesity-related cardiac disease^5 (Boudina and Abel, Circulation 115:3213-23, 2007). In particular, intra-myocardial accumulation of triacylglycerol metabolites mediated by activation of peroxisome proliferator activated receptor α(PPARα) has been strongly associated with cardiac dysfunction in rodents fed a HF diet^20 (Ouwens et al., Diabetologia 48:1229-37, 2005). To assess the interaction of AGE/RAGE with lipotoxicity pathways in this model, the ventricular expression of PPARα and the fatty acid translocase, CD36, were assessed by real-time quantitative RT-PCR. Intra-myocardial accumulation of triacylglycerol metabolites was assessed by staining with Oil red-O in frozen cardiac sections and quantitated in cardiac homogenates extracted using the method of Bligh and Dyer and measured using a standard commercial enzymatic assay.

[2] = test system: superoxide production in left ventricular homogenates (gp91^phox, RAC-1, heme oxygenase); test: Assessment of superoxide production in HF-fed mice
Source text: Adult (8-week-old) male […] mice (Precinct Animal Centre, Melbourne, Australia) and RAGE knockout (KO) mice^17 ([…] al., J Clin Invest. 113:1641-50, 2004) were housed in a temperature-controlled room on a 12-h light-dark cycle. Mice were placed on either a standard diet (AIN-93G; Specialty feeds, Perth AUS; n=10/group) or a high fat (HF) diet formulated to mimic a “Western fast food diet”, (SF05-031, Specialty Feeds; n=10). Both diets contained the same vitamin and calorie content. […] Animals receiving a HF diet were further randomized to receive alagebrium chloride at a dose of 1 mg/kg/day delivered by oral gavage. All groups were followed for 16 weeks. The production and accumulation of superoxide and other ROS is a key mediator of […] injury and cellular dysfunction associated with high fat feeding^5 (Boudina and Abel, Circulation 115:3213-23, 2007). […] Following incubation for 60 min at 37° C., before the rate of superoxide anion formation was determined by the addition of 3.8 μM lucigenin (bis-N-methylacridinium nitrate). […] The expression of the NADPH subunits, NOX-2 (gp91^phox), p47^phox, NOX-4 and RAC-1 in left ventricular homogenates, along with the expression of heme oxygenase (HO) and glutathione peroxidase (GPX), key defence mechanism against oxidative stress, were further assessed by real-time quantitative RT-PCR, as detailed above.

[3] = Physiological and biochemical parameters in HF-fed mice; conditions: HF diet, 1 mg/kg/day oral gavage; for Weight gain (% baseline): 16 weeks
Source text: Adult (8-week-old) male […] mice (Precinct Animal Centre, Melbourne, Australia) and RAGE knockout (KO) mice^17 ([…] al., J Clin Invest. 113:1641-50, 2004) were housed in a temperature-controlled room on a 12-h light-dark cycle. Mice were placed on either a standard diet (AIN-93G; Specialty feeds, Perth AUS; n=10/group) or a high fat (HF) diet formulated to mimic a “Western fast food diet”, (SF05-031, Specialty Feeds; n=10). Both diets contained the same vitamin and calorie content. […] Animals receiving a HF diet were further randomized to receive alagebrium chloride at a dose of 1 mg/kg/day delivered by oral gavage. All groups were followed for 16 weeks. The following parameters were serially measured in all groups: body weight; blood glucose, measured using a glucometer; systolic blood pressure, measured by tail-cuff plethysmography in conscious, warmed mice.

[4] = Wild-type mice, listed as AL, 1 mg/kg/day

Compound: Cc1sc[n+](CC(=O)c2ccccc2)c1C.[Cl-] [alagebrium chloride, 3-(2-phenyl-2-oxoethyl)-4,5-dimethylthiazolium chloride]
- intramyocardial accumulation of lipid (Oil-red O staining, cardiac triglyceride content) ([1]; HF-fed mice (FIG. 1)): unaffected
- Expression of the fatty acid translocase, CD36 ([1]; HF-fed mice, RT-PCR): similar
- Gene expression PPAR alpha ([1]; RAGE KO mice): reduced
- Gene expression PPAR alpha ([1]; RAGE KO mice, listed as AL): 1.2 ± 0.3 AU/18s
- Gene expression PPAR alpha ([1]; Wild-type mice): reduced
- Gene expression PPAR alpha ([1]; Wild-type mice, listed as AL): 1.9 ± 0.4 AU/18s
- Gene expression relative to 18S (AU/18s) ([2]; RAGE KO mice, HF diet, real time RT-PCR, listed as AL): 0.1 ± 0.1 AU/18s
- NADH-dependent (mitochondrial) superoxide production in cardiac homogenates ([2]; both wild type and RAGE KO mice, HF diet (FIG. 4)): significantly reduced
- Glucose ([3]; RAGE KO mice): 13.7 ± 0.7 mmol/L
- Weight gain (% baseline) ([3]; RAGE KO mice): 44 ± 7 % baseline
- Weight gain (% baseline) ([3]; Wild-type mice, 1 mg/kg/day): reduced
- Weight gain (% baseline) [3, 4]: 27 ± 2 % baseline
- Glucose ([3]; Wild-type mice, 1 mg/kg/day): equivalent changes
- Glucose [3, 4]: 15.1 ± 0.5 mmol/L
